From ChEMBL document CHEMBL5143727, “Cytotoxic and Antibacterial Isomalabaricane Terpenoids from the Sponge Rhabdastrella globostellata” (J Nat Prod, 2022)
Converted amounts (≈) assume the structure as drawn. The source made the active and inactive calls. The rule behind the calls is not given here.

Columns and labels:
Staphylococcus aureus = test: Antibacterial activity against Staphylococcus aureus USA300 LAC assessed as bacterial growth inhibition incubated for 24 hrs by microdilution assay; type: functional, organism-based
Streptococcus pyogenes = test: Antibacterial activity against Streptococcus pyogenes ATCC 12344 assessed as bacterial growth inhibition incubated for 24 hrs by microdilution assay; type: functional
MV4-11 = test: Cytotoxicity against human MV4-11 cells harboring FLT3-ITD mutant assessed as inhibition of cell proliferation incubated for 72 hrs by MTT assay; type: functional, cell-based; details: for IC50: MV4-11, 72 h
HCT-116 [1] = test: Cytotoxicity against human HCT-116 cells harboring p53-/- assessed as inhibition of cell proliferation incubated for 72 hrs by MTT assay; type: functional, cell-based
HCT-116 [2] = test: Cytotoxicity against human HCT-116 cells harboring wild type p53 assessed as inhibition of cell proliferation incubated for 72 hrs by MTT assay; type: functional, cell-based; details: for IC50: HCT-116, 72 h
HL-60 = test: Cytotoxicity against human HL-60 cells harboring wild type FLT3 assessed as inhibition of cell proliferation incubated for 72 hrs by MTT assay; type: functional, cell-based; details: for IC50: HL-60, 72 h
U-87 MG [3] = test: Cytotoxicity against human U87 cells harboring wild type IDH1 assessed as inhibition of cell proliferation incubated for 72 hrs by MTT assay; type: functional, cell-based; details: U-87MG ATCC
U-87 MG [4] = test: Cytotoxicity against human U87 cells harboring IDH1-R132H mutant assessed as inhibition of cell proliferation incubated for 72 hrs by MTT assay; type: functional, cell-based; details: U-87MG ATCC

Row | MIC (Streptococcus pyogenes) | SMILES | Activity (Staphylococcus aureus) | Activity (HCT-116 [1]) | Activity (U-87 MG [3]) | Activity (U-87 MG [4]) | other results
1 | 0.1 µg/mL (≈ 0.222 µM) | CC(=O)/C=C\C(=O)/C(C)=C/C=C/C(C)=C1/C(=O)C[C@H]2[C@@]3(C)CCC(=O)C(C)(C)[C@@H]3CC[C@]12C | Active | – | – | – | –
2 | – | CC(=O)O[C@H]1CC[C@@]2(C)[C@@H](CC[C@]3(C)/C(=C(C)/C=C/C=C(\C)[C@H]4CC=C(C)C(=O)O4)C(=O)C[C@@H]23)C1(C)C | – | Active | – | – | IC50 (MV4-11): 280 nM; IC50 (HCT-116 [2]): 2490 nM; IC50 (HL-60): 42 nM
3 | 1.8 µg/mL (≈ 3.99 µM) | CC(=O)/C=C/C(=O)/C(C)=C/C=C/C(C)=C1/C(=O)C[C@H]2[C@@]3(C)CCC(=O)C(C)(C)[C@@H]3CC[C@]12C | Active | – | – | – | –
4 | 1 µg/mL (≈ 2.02 µM) | CC(=O)/C=C\C(=O)/C(C)=C/C=C/C(C)=C1/C(=O)C[C@H]2[C@@]3(C)CC[C@H](OC(C)=O)C(C)(C)[C@@H]3CC[C@]12C | Active | – | – | – | –
5 | – | CC1=CC[C@@H](/C(C)=C/C=C/C(C)=C2\C(=O)C[C@H]3[C@@]4(C)CCC(=O)C(C)(C)[C@@H]4CC[C@]23C)OC1=O | – | Active | Active | Active | Activity (MV4-11): Active; Activity (HCT-116 [2]): Active; Activity (HL-60): Active
6 | 0.9 µg/mL (≈ 2 µM) | CC(=O)/C=C/C(=O)/C(C)=C/C=C/C(C)=C1\C(=O)C[C@H]2[C@@]3(C)CCC(=O)C(C)(C)[C@@H]3CC[C@]12C [GEODITIN A] | Active | – | – | – | –
7 | 0.4 µg/mL (≈ 0.888 µM) | CC(=O)/C=C\C(=O)/C(C)=C/C=C/C(C)=C1\C(=O)C[C@H]2[C@@]3(C)CCC(=O)C(C)(C)[C@@H]3CC[C@]12C [ISOGEODITIN A] | Active | – | – | – | –
8 | 1.9 µg/mL (≈ 3.84 µM) | CC(=O)/C=C\C(=O)/C(C)=C/C=C/C(C)=C1\C(=O)C[C@H]2[C@@]3(C)CC[C@H](OC(C)=O)C(C)(C)[C@@H]3CC[C@]12C [ISOGEODITIN B] | – | – | – | – | –
9 | 1.8 µg/mL (≈ 3.89 µM) | C\C(=C/C=C/C(C)=C1/C(=O)C[C@H]2[C@@]3(C)CCC(=O)C(C)(C)[C@@H]3CC[C@]12C)c1ccc(C)c(=O)o1 [STELLETIN A] | – | Active | Active | Active | Activity (MV4-11): Active; Activity (HCT-116 [2]): Active; Activity (HL-60): Active
10 | 2 µg/mL (≈ 3.95 µM) | CC(=O)O[C@H]1CC[C@@]2(C)[C@@H](CC[C@]3(C)\C(=C(C)/C=C/C=C(\C)c4ccc(C)c(=O)o4)C(=O)C[C@@H]23)C1(C)C [STELLETTIN C] | – | Active | Active | Active | Activity (MV4-11): Active; Activity (HCT-116 [2]): Active; Activity (HL-60): Active
11 | 2 µg/mL (≈ 3.95 µM) | CC(=O)O[C@H]1CC[C@@]2(C)[C@@H](CC[C@]3(C)/C(=C(C)/C=C/C=C(\C)c4ccc(C)c(=O)o4)C(=O)C[C@@H]23)C1(C)C [STELLETTIN D] | – | Active | Active | Active | IC50 (MV4-11): 390 nM; IC50 (HCT-116 [2]): 2350 nM; IC50 (HL-60): 15 nM
